Experimental data from patent publication US9255098B2, “Xanthine derivative” (Chengdu Easton Pharmaceutical Co., Ltd., priority 2012, dated 2016).
Structures can show the parent of a compound that is named as a salt.

What was measured:
normal KM mice = assay: Impact on glucose tolerance in normal mice; assay type: in vivo; conditions: for blood glucose at 30 min after glucose loaded / blood glucose at 60 min after glucose loaded / blood glucose at 120 min after glucose loaded / Fasting blood glucose: normal KM mice, x ± SD; for blood glucose at 30 min after glucose loaded / blood glucose at 60 min after glucose loaded / blood glucose at 120 min after glucose loaded / blood glucose value compared with the positive drug (Linagliptin) / blood glucose levels compared with the blank group: 3 mg/kg i.g; for blood glucose at 30 min after glucose loaded / blood glucose at 60 min after glucose loaded / blood glucose at 120 min after glucose loaded: glucose 8 g/kg i.g 30 min after drug; for Fasting blood glucose: fasted, before administration (baseline), group dosed 3 mg/kg i.g; for blood glucose value compared with the positive drug (Linagliptin) / blood glucose levels compared with the blank group: normal mice, at 30, 60 and 120 min after glucose loaded; for blood glucose levels compared with the blank group: P<0.01
Experimental: KM mice, 6 weeks old, weighing 18˜22 g, half male and half female, 60 mice, provided by Chengdu Dashuo Biological Technology Co., Ltd., Production license: SCXK (Chuan) 2008-24. Animals were housed in the animal room after purchased, adaptively observed for at least three days, and used for assays […] they were qualified for the quarantine standard.
(§1) 2.1 Animals were fasted for at least 12 hours before starting the assay;
2.2 Grouping: fasting blood glucose values of the fasted mice were measured, and the mice were randomly grouped according to Table 1, with no significant difference between the groups;
(§2) Animals in each group were administrated with corresponding investigational compounds according the Table 1 by intragastric administration (i.g), then administrated with glucose (8 g/kg) respectively by intragastric administration at 30 min after administrating drugs, and the blood glucose values thereof were measured respectively at 30 min, 60 min and 120 min after administrating the glucose (glucose loaded).
(§3) Excel was used for statistics, experimental data were expressed as ( x±SD), and two-sided T-test method was used to statistically compare the experimental data among multiple groups.

[1] = tested on: Type II spontaneous diabetic KKAy obese mice; assay: Impact on blood glucose in spontaneous diabetic mice; assay type: in vivo; conditions: for blood glucose at 30 min after glucose loaded / blood glucose at 60 min after glucose loaded / blood glucose at 120 min after glucose loaded: glucose 8 g/kg i.g 30 min after drug; for blood glucose at 30 min after glucose loaded / blood glucose at 60 min after glucose loaded / blood glucose at 120 min after glucose loaded / Fasting blood glucose: x ± SD; for Fasting blood glucose: fasted, before administration (baseline), group dosed 3 mg/kg i.g
Experimental: Type II spontaneous diabetic KKAy obese mice, 60 mice, 14 weeks old, half male and half female, purchased from Institute of Laboratory Animal Science, Chinese Academy of Medical Sciences (Qualified number: SCXK (Jing) 2009-0004). Animals were housed in the animal room after purchased, adaptively observed for at least three days, and used for assays […] they were qualified for the quarantine standard.
as §1
2.2 Fasting blood glucose values of the fasted mice were measured by ACCU-CHEK active glucose test strips, and the mice were randomly grouped according to Table 3. In addition, the C57BL/6J mice were used for the blank control group, while the type II spontaneous diabetic KKAy mice were used for the model group.
as §2, with “according” for “according the”, “Table 3” for “Table 1”
as §3

[2] = molecular target: Dipeptidyl peptidase IV (DPP-IV) (Homo sapiens (Human), UniProt P27487); assay: DPP-IV activity inhibitory assay in vitro; assay type: biochemical; conditions: substrate Gly-Pro-7-amido-4-methylcoumarin, fluorescence 355/460 nm
Experimental: 2.1 Dipeptidyl peptidase IV (DPP-IV): SIGMA products, Item No. D4943-1VL.
2.3 DPP-IV buffer: containing 25 mM Hepes, 140 mM NaCl, 1% BSA, 80 mM MgCl2, of which pH was adjusted to 8.0.
2.5 Testing equipment: envision (PerkinElmer Company).
The variation of the product amount can be determined by the variation of fluorescence intensity, so as to reflect the activity level of the enzyme.
The dipeptidyl peptidase IV (DPP-IV), DPP-IV buffer and test samples were used to construct the reaction system of 200 μL, while the blank control (without enzyme and samples) and negative control (without samples) having the same volume were set up. […] Inhibition ratio was calculated according to the fluorescence intensity F value, inhibition ratio=[1−(Fsample−Fblank)/(Fnegative−Fblank)]×100. […] According to inhibition ratio, 4 Parameter Logistic Model in Xlfit software was applied to calculate IC50.

Dipeptidyl peptidase IV (DPP-IV), sequence (P27487 whole entry): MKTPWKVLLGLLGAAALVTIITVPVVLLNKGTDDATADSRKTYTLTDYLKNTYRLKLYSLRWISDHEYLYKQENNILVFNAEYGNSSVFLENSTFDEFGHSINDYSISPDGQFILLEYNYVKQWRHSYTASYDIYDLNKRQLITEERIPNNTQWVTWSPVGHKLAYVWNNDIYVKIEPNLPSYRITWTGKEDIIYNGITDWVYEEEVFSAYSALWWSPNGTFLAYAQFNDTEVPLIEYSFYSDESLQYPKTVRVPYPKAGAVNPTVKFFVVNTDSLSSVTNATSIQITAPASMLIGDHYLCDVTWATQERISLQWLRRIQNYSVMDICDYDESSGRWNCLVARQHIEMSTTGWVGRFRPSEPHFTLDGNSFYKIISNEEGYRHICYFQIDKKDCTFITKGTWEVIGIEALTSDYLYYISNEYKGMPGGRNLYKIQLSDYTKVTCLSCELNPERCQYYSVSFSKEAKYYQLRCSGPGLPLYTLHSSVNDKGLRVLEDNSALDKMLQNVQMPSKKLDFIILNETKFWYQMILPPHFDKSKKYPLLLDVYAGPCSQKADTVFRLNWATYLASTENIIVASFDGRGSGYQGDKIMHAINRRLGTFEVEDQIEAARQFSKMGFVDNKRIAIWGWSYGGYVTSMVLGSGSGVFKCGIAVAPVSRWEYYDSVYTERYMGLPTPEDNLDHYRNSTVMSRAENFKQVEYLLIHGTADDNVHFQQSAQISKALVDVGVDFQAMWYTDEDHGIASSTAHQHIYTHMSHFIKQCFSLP

Structure (SMILES)	IC50 [2]	IC50 ([2]; hydrochloride)	blood glucose at 30 min after glucose loaded (normal KM mice)	blood glucose at 60 min after glucose loaded (normal KM mice)	blood glucose at 120 min after glucose loaded (normal KM mice)	Fasting blood glucose (normal KM mice)	blood glucose value compared with the positive drug (Linagliptin) (normal KM mice)	blood glucose levels compared with the blank group (normal KM mice)	blood glucose value compared with the positive drug Linagliptin at 30 min after glucose loaded ([1]; 3 mg/kg i.g)	blood glucose at 30 min after glucose loaded ([1]; 3 mg/kg i.g)	blood glucose at 60 min after glucose loaded ([1]; 3 mg/kg i.g)	blood glucose at 120 min after glucose loaded ([1]; 3 mg/kg i.g)	Fasting blood glucose [1]	blood glucose levels compared with the model group ([1]; 3 mg/kg i.g, at 30, 60 and 120 min after glucose loaded, P<0.01)
CC#CCn1c(N2CCC[C@@H](N)C2)nc2c1c(=O)n(Cc1nc3cc(F)ccc3s1)c(=O)n2C [Ex. 1, 1-[(5-fluoro-1,3-benzothiazol-2-yl)methyl]-3-methyl-7-(2-butyn-1-yl)-8-[(R)-3-amino-piperidin-1-yl]-xanthine]			15.02 ± 1.99 mmol/L	12.61 ± 1.98 mmol/L	8.79 ± 0.88 mmol/L	7.27 ± 0.74 mmol/L	extremely significantly decreased	extremely significantly decrease	extremely significantly decreased	14.98 ± 1.53^▴▴★★ mmol/L	11.10 ± 2.45^▴▴★ mmol/L	9.97 ± 1.28 mmol/L	9.29 ± 0.71 mmol/L	
CC#CCn1c(N2CCC[C@@H](N)C2)nc2c1c(=O)n(Cc1nc3cc(F)ccc3s1)c(=O)n2C.Cl [Ex. 4, 1-[(5-fluoro-1,3-benzothiazol-2-yl)methyl]-3-methyl-7-(2-butyn-1-yl)-8-[(R)-3-amino-piperidin-1-yl]-xanthine hydrochloride]			15.50 ± 1.94 mmol/L	12.75 ± 1.43 mmol/L	8.91 ± 0.98 mmol/L	7.25 ± 0.98 mmol/L	significantly decreased	extremely significantly decrease	significantly decreased	15.60 ± 1.30^▴▴★ mmol/L	11.45 ± 1.60^▴▴★ mmol/L	10.75 ± 1.20 mmol/L	9.17 ± 0.58 mmol/L	
CC#CCn1c(N2CCC[C@@H](N)C2)nc2c1c(=O)n(Cc1nc(C)c3ccccc3n1)c(=O)n2C [Linagliptin, reference compound]			17.07 ± 1.83 mmol/L	14.98 ± 1.66 mmol/L	9.96 ± 0.89 mmol/L	7.13 ± 0.86 mmol/L		extremely significantly decrease		17.14 ± 1.45 mmol/L	13.10 ± 1.38 mmol/L	11.27 ± 1.43 mmol/L	9.09 ± 0.53 mmol/L	extremely significantly decrease

Continued, in another order:

IC50 [2]	IC50 ([2]; hydrochloride)	Structure (SMILES)	blood glucose at 30 min after glucose loaded (normal KM mice)	blood glucose at 60 min after glucose loaded (normal KM mice)	blood glucose at 120 min after glucose loaded (normal KM mice)	Fasting blood glucose (normal KM mice)	blood glucose value compared with the positive drug (Linagliptin) (normal KM mice)	blood glucose levels compared with the blank group (normal KM mice)	blood glucose value compared with the positive drug Linagliptin at 30 min after glucose loaded ([1]; 3 mg/kg i.g)	blood glucose at 30 min after glucose loaded ([1]; 3 mg/kg i.g)	blood glucose at 60 min after glucose loaded ([1]; 3 mg/kg i.g)	blood glucose at 120 min after glucose loaded ([1]; 3 mg/kg i.g)	Fasting blood glucose [1]	blood glucose levels compared with the model group ([1]; 3 mg/kg i.g, at 30, 60 and 120 min after glucose loaded, P<0.01)
0.1 nM		CC#CCn1c(N2CCC[C@@H](N)C2)nc2c1c(=O)n(Cc1nc3ccccc3s1)c(=O)n2C [Ex. 2, 1-[(1,3-benzothiazol-2-yl)methyl]-3-methyl-7-(2-butyn-1-yl)-8-[(R)-3-amino-piperidin-1-yl]-xanthine]	15.59 ± 2.04 mmol/L	12.78 ± 1.97 mmol/L	8.96 ± 1.16 mmol/L	7.43 ± 1.32 mmol/L	significantly decreased	extremely significantly decrease	significantly decreased	15.59 ± 1.23^▴▴★ mmol/L	11.41 ± 1.58^▴▴★ mmol/L	10.81 ± 1.37 mmol/L	9.07 ± 0.67 mmol/L	
0.2 nM		CC#CCn1c(N2CCC[C@@H](N)C2)nc2c1c(=O)n(Cc1nc3cc(Cl)ccc3s1)c(=O)n2C [Ex. 3, 1-[(5-chloro-1,3-benzothiazol-2-yl)methyl]-3-methyl-7-(2-butyn-1-yl)-8-[(R)-3-amino-piperidin-1-yl]-xanthine]	15.61 ± 1.10 mmol/L	13.49 ± 1.31 mmol/L	8.90 ± 1.26 mmol/L	7.19 ± 1.04 mmol/L	significantly decreased	extremely significantly decrease	significantly decreased	15.86 ± 1.04^▴▴★ mmol/L	11.28 ± 1.67^▴▴★ mmol/L	10.73 ± 1.46 mmol/L	9.15 ± 0.61 mmol/L	
	0.15 nM	CC#CCn1c(N2CCC[C@@H](N)C2)nc2c1c(=O)n(Cc1nc3ccccc3s1)c(=O)n2C [Ex. 5, 1-[(1,3-benzothiazol-2-yl)methyl]-3-methyl-7-(2-butyn-1-yl)-8-[(R)-3-amino-piperidin-1-yl]-xanthine hydrochloride]												
